Common to all, as to type: cell-based, mouse
Assay [1] has as its system Eμ-Myc lymphoma cells. The assay can be described thus: Luciferase assay and light microscopy of luciferased lymphoma cells on stromal layer. The following applies: for Response rate to cyclopamine treatment (responsive/tested cultures) / Response rate to cyclopamine treatment: Myc-lymphomas; for Response rate to cyclopamine treatment: >80% growth inhibition at 5 μM. The protocol:
For Shh pathway inhibition on stroma, 6200 stroma cells were seeded per 96-well. After 24 hours 20,000 luciferased lymphoma cells were seeded on the stroma cells and 2 hours later compound or DMSO was added. Luciferase assay was performed with Bright-glow reagent as described. To generate cells overexpressing Hh pathway members, lymphoma cells were infected with Smo, Smo 535, Smo 562, Gli1 and Fused-pMSCV IRES GFP constructs and then sorted for GFP positive cells.
In order to investigate whether the Hh signalling pathway does indeed contribute to the survival and proliferation of lymphoma cells growing on an intact stromal layer, lymphoma cells were luciferased using a retrovirus expressing a puromycin/Luc fusion cassette. 2×10E4 lymphoma cells constitutively expressing luciferase were added to each 96-well containing a stromal layer (not expressing luciferase) isolated from Cdkn2a^−/− mice. A total of 34 individual Eμ-Myc-lymphomas and 8 Cdkn2a-lymphomas were tested. A luciferase assay was performed as a readout for cell viability and proliferation and results were also documented by light microscopy.

Assay [2] relates to Eμ-Myc lymphoma cells. Briefly: Shh-induced proliferation of lymphoma cells without stromal layer, Alamar Blue assay. The following applies: Shh 10 μM over 48 h; 5E1 10 μg/ml, cyclopamine 5 μM. The protocol: Luminescence was measured after 0 h, 24 h and 48 h after seeding of 2×10E4 luciferased lymphoma cells on the stroma cells; and F: RT-PCR analysis of transcripts from Hh pathway members and targets in spleen lymphocytes and different lymphoma cell lines.
Cell culture experiments: Lymphoma cells were infected with a retrovirus containing a pMSCV IRES puro-luc sequence and selected for 7 days with puromycin on puromycin-resistant Cdkn2a−/− stroma. […] Both were dissolved as x 1,000 stocks in DMSO. SCF was obtained from RDI, and all other cytokines were obtained from R&D systems. 5E1 anti-ShhN monoclonal antibody was obtained from the developmental hybridoma bank and was used at a concentration of 10 μg/ml. For cytokine stimulation and Shh inhibition in supernatant lymphoma cells were seeded into 96-well plates at a density of 20,000 cells per well and mitochondrial activity of viable cells was measured with an Alamar Blue Assay as described.
(In general: Resazurin is reduced to fluorescent resorufin, in cell work by metabolically active cells.)

The subject of a further assay is lymphoma cells. Briefly: Annexin V staining, flow cytometry. The following applies: 5 μM. (In general: In flow cytometry, cells or beads pass a laser one at a time.)

SMILES strings stand for the structures. pIC50: −log10 of the molar value.

Turning to `CC1=C2C[C@H]3[C@@H](CC=C4C[C@@H](O)CC[C@@]43C)[C@@H]2CC[C@]12O[C@@H]1C[C@H](C)CN[C@H]1[C@H]2C` [cyclopamine], the pIC50 with Eμ-Myc lymphoma cells [1] (Mus musculus, 48 h, read-out: IC50 (concentration needed for 50% of maximal inhibition)) was 5.70 to 6.30. The “clearance of lymphoma cells from the stromal layer” value with Eμ-Myc lymphoma cells [1] (Myc-Ly4, 5 μM, within 48 h) was “complete clearance”. Moreover, the “Response rate to cyclopamine treatment (responsive/tested cultures)” value with Eμ-Myc lymphoma cells [1] (B-cell lymphoma) is 8/10 and (8/10); with Eμ-Myc lymphoma cells [1] (mixed lymphomas), 1/2; with Eμ-Myc lymphoma cells [1] (plasmacytoma), 6/9; in the assay with Eμ-Myc lymphoma cells [1] (plasmoblastoma) it was 8/10 and (8/10). Also, the “Response rate to cyclopamine treatment” value with Eμ-Myc lymphoma cells [1] (mixed lymphomas) is given as 50%; in the assay on Eμ-Myc lymphoma cells [1] (plasmacytoma) it was 66%; with Eμ-Myc lymphoma cells [1] (plasmoblastoma), 80%. Also, the “lymphomas sensitive to Hh pathway inhibition” value in the assay on Eμ-Myc lymphoma cells [1] (all Eμ-Myc-lymphomas, sensitivity = greater than 80% growth inhibition at 5 μM) turned out to be 74.1%. In the assay on Eμ-Myc lymphoma cells [2], the “inhibition of Shh-induced proliferation” value is on record as “inhibited”. For the same molecule, the figures for the “apoptotic cells (annexin V)” value with lymphoma cells (after 48 hours) and in the assay with lymphoma cells (within 12 hours) were roughly 100% and “more than 50%”, respectively.

Source of the values: patent US20110044991A1, “METHODS AND COMPOSITIONS FOR TREATING LYMPHOMA AND MYELOMA” (IRM LLC, priority 2006, published 2011).
